# Reference: US8193191B2, “Urotensin II receptor antagonists” (Janssen Pharmaceutica N.V., priority 2006, dated 2012)
# Read-outs that look alike come from different tables or passages of the source.
# Key:
# [1] = biological target: T1, rat GPR14 (U-II receptor) (Rattus norvegicus, UniProt P49684); experiment: Rat UII Calcium Mobilization FLIPR Assay; type: cell-based; conditions: average value for the compound tested; read-out: Rat UII FLIPR Average IC50
# T1 construct: expressed in transfected cells
# T1 sequence (P49684 1-386): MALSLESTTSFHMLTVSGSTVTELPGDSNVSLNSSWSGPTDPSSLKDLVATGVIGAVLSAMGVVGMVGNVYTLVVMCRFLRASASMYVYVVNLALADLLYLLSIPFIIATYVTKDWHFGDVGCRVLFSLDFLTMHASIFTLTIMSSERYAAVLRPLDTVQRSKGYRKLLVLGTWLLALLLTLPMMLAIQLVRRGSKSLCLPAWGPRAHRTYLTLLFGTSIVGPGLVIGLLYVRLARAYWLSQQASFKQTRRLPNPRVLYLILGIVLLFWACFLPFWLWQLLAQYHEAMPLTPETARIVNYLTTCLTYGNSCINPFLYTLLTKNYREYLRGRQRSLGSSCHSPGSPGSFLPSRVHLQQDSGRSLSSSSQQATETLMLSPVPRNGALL
# Outline: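 CHO cells stably expressing rat U-II receptor, seeded 24 h before assay, were loaded with FLIPR calcium dye in HBSS/20 mM HEPES/0.1% BSA/2.5 mM probenecid, pH 7.4, for 1 h at 37° C. Calcium mobilization then read by FLIPR at 23° C.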
# [2] = biological target: T2, Human UII receptor, 6D9 human rhabdomyosarcoma cells (Homo sapiens, UniProt Q9UKP6); experiment: Human UII Calcium Mobilization Assay; type: cell-based; conditions: average value, FLIPR TETRA, read-out: Human UII Ca^+ Mobilization Average IC50
# T2 construct: 6D9: isolated by dilution subcloning of RMS13 cells, ATCC® Number: CRL-2061; host or cells: 6D9 human rhabdomyosarcoma cells (subclone of RMS13)
# T2 sequence (Q9UKP6 1-389): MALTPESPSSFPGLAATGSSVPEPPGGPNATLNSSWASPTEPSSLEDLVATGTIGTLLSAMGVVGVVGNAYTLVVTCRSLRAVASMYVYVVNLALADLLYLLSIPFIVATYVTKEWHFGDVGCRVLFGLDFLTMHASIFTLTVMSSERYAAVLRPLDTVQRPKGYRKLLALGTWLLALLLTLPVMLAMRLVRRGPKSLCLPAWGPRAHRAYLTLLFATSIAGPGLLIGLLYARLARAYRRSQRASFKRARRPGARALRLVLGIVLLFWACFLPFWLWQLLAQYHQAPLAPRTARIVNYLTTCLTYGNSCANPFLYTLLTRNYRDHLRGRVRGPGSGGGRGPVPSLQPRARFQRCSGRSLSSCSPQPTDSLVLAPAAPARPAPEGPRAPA
# Outline: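 6D9 rhabdomyosarcoma cells loaded 45 min at 37° C with calcium dye (1.25 mM probenecid, 0.01% FBS, HBSS/20 mM HEPES). Antagonist and U-II agonist added at room temperature; FLIPR fluorescence read over 4 min; EC50/IC50 fitted. DMSO ≤0.1% final.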
# [3] = biological target: T3, endogenous human UII receptor (Homo sapiens, UniProt Q9UKP6); experiment: Human Radioligand Binding Assay ((^125I)-U-II binding to human skeletal muscle myoblasts)
# T3 sequence (Q9UKP6 1-389): T2 sequence (Q9UKP6 1-389)
# [4] = read-out: Human UII Average Binding Ki, average value, (^125I)-U-II binding to human skeletal muscle myoblasts (HSMM), 25° C., 3 h
SMILES,IC50 [1],IC50 [2],Ki [3],"Ki [3, 4]"
"COc1ccc([C@@H](CCCNC(=O)c2csc(C)n2)N2C(=O)c3cccc(N4CCN([C@H](C)c5ccccc5)CC4)c3C2=O)cc1OC [Cpd 156, (R)-2-methyl-thiazole-4-carboxylic acid (4-(3,4-dimethoxy-phenyl)-4-{1,3-dioxo-4-[4-(1R)-(1-phenyl-ethyl)-piperazin-1-yl]-1,3-dihydro-isoindol-2-yl}-butyl)-amide]",35 nM,490 nM,84 nM,–
"COc1ccc([C@@H](CCCNC(=O)c2cccnc2)N2C(=O)c3cccc(N4CCN([C@H](C)c5ccccc5)CC4)c3C2=O)cc1OC [Cpd 151, (R)-N-(4-(3,4-dimethoxy-phenyl)-4-{1,3-dioxo-4-[4-(1R)-(1-phenyl-ethyl)-piperazin-1-yl]-1,3-dihydro-isoindol-2-yl}-butyl)-nicotinamide]",14 nM,1000 nM,74 nM,–
"COc1ccc([C@@H](CCCNS(=O)(=O)O)N2C(=O)c3cccc(N4CCN([C@H](C)c5ccccc5)CC4)c3C2=O)cc1OC [Cpd 129, (R)-(4-(3,4-dimethoxy-phenyl)-4-{1,3-dioxo-4-[4-(1R)-(1-phenyl-ethyl)-piperazin-1-yl]-1,3-dihydro-isoindol-2-yl}-butyl)-sulfamic acid]",9.4 nM,160 nM,9 nM,–
"COc1ccc(C(CCCNS(=O)(=O)c2c(C)nn(C)c2Cl)N2C(=O)c3cccc(N4CCN([C@H](C)c5ccccc5)CC4)c3C2=O)cc1OC (stereo partly drawn) [Cpd 101, 5-chloro-1,3-dimethyl-1H-pyrazole-4-sulfonic acid (4-(3,4-dimethoxy-phenyl)-4-{1,3-dioxo-4-[4-(1R)-(1-phenyl-ethyl)-piperazin-1-yl]-1,3-dihydro-isoindol-2-yl}-butyl)-amide]",30 nM,300 nM,120 nM,–
"COc1ccc(C(CCCNS(=O)(=O)c2cccnc2)N2C(=O)c3cccc(N4CCN([C@H](C)c5ccccc5)CC4)c3C2=O)cc1OC (stereo partly drawn) [Cpd 106, pyridine-3-sulfonic acid (4-(3,4-dimethoxy-phenyl)-4-{1,3-dioxo-4-[4-(1R)-(1-phenyl-ethyl)-piperazin-1-yl]-1,3-dihydro-isoindol-2-yl}-butyl)-amide]",16 nM,230 nM,80 nM,–
"COc1ccc([C@@H](CCCNS(=O)(=O)c2cccs2)N2C(=O)c3cccc(N4CCN([C@H](C)c5ccccc5)CC4)c3C2=O)cc1OC [Cpd 118, (R)-thiophene-2-sulfonic acid (4-(3,4-dimethoxy-phenyl)-4-{1,3-dioxo-4-[4-(1R)-(1-phenyl-ethyl)-piperazin-1-yl]-1,3-dihydro-isoindol-2-yl}-butyl)-amide]",29 nM,240 nM,–,49 nM
"COc1ccc([C@@H](CCCNS(=O)(=O)c2cccs2)N2C(=O)c3cccc(N4CCNCC4)c3C2=O)cc1OC [Cpd 167, (R)-thiophene-2-sulfonic acid [4-(3,4-dimethoxy-phenyl)-4-(1,3-dioxo-4-piperazin-1-yl-1,3-dihydro-isoindol-2-yl)-butyl]-amide]",40 nM,500 nM,–,150 nM
"COc1ccc([C@@H](CCCNS(=O)(=O)c2cccs2)N2C(=O)c3cccc(N4CCN(Cc5ccoc5)CC4)c3C2=O)cc1OC [Cpd 170, (R)-thiophene-2-sulfonic acid {4-(3,4-dimethoxy-phenyl)-4-[4-(4-furan-3-ylmethyl-piperazin-1-yl)-1,3-dioxo-1,3-dihydro-isoindol-2-yl]-butyl}-amide]",8.4 nM,410 nM,31 nM,–
"COc1ccc([C@@H](CCCNS(=O)(=O)c2cccs2)N2C(=O)c3cccc(N4CCN(Cc5cccnc5)CC4)c3C2=O)cc1OC [Cpd 171, (R)-thiophene-2-sulfonic acid {4-(3,4-dimethoxy-phenyl)-4-[1,3-dioxo-4-(4-pyridin-3-ylmethyl-piperazin-1-yl)-1,3-dihydro-isoindol-2-yl]-butyl}-amide]",11 nM,1000 nM,370 nM,–
"COc1ccc([C@@H](CCCNC(=O)c2ccc(S(N)(=O)=O)n2C)N2C(=O)c3cccc(N4CCN([C@H](C)c5ccccc5)CC4)c3C2=O)cc1OC [Cpd 148, (R)-1-methyl-5-sulfamoyl-1H-pyrrole-2-carboxylic acid (4-(3,4-dimethoxy-phenyl)-4-{1,3-dioxo-4-[4-(1R)-(1-phenyl-ethyl)-piperazin-1-yl]-1,3-dihydro-isoindol-2-yl}-butyl)-amide]",18 nM,1100 nM,> 200 nM,–

# The next lines start with results.
IC50 [1],IC50 [2],Ki [3],SMILES,"Ki [3, 4]"
22 nM,1200 nM,380 nM,"COc1ccc([C@@H](CCCNS(=O)(=O)c2cccs2)N2C(=O)c3cccc(N4CCN(C5CCCCC5)CC4)c3C2=O)cc1OC [Cpd 196, (R)-thiophene-2-sulfonic acid [4-[4-(4-cyclohexyl-piperazin-1-yl)-1,3-dioxo-1,3-dihydro-isoindol-2-yl]-4-(3,4-dimethoxy-phenyl)-butyl]-amide]",–
11 nM,220 nM,26 nM,"COc1ccc([C@@H](CCCNS(=O)(=O)c2cccs2)N2C(=O)c3cccc(N4CCN(Cc5ccsc5)CC4)c3C2=O)cc1OC [Cpd 172, (R)-thiophene-2-sulfonic acid {4-(3,4-dimethoxy-phenyl)-4-[1,3-dioxo-4-(4-thiophen-3-ylmethyl-piperazin-1-yl)-1,3-dihydro-isoindol-2-yl]-butyl}-amide]",–
12 nM,970 nM,41 nM,"COc1ccc([C@@H](CCCNC(=O)CC(C)C)N2C(=O)c3cccc(N4CCN([C@H](C)c5ccccc5)CC4)c3C2=O)cc1OC [Cpd 181, (R)-N-(4-(3,4-dimethoxy-phenyl)-4-{1,3-dioxo-4-[4-(1R)-(1-phenyl-ethyl)-piperazin-1-yl]-1,3-dihydro-isoindol-2-yl}-butyl)-3-methyl-butyramide]",–
9.8 nM,1000 nM,23 nM,"COc1ccc([C@@H](CCCNC(=O)C(C)(C)C)N2C(=O)c3cccc(N4CCN([C@H](C)c5ccccc5)CC4)c3C2=O)cc1OC [Cpd 185, (R)-N-(4-(3,4-dimethoxy-phenyl)-4-{1,3-dioxo-4-[4-(1R)-(1-phenyl-ethyl)-piperazin-1-yl]-1,3-dihydro-isoindol-2-yl}-butyl)-2,2-dimethyl-propionamide]",–
160 nM,2900 nM,> 300 nM,"CCN1CCN(c2cccc3c2C(=O)N([C@H](CCCOCc2c(F)cccc2F)c2ccc(OC)c(OC)c2)C3=O)CC1 [Cpd 227, (R)-2-[4-(2,6-difluoro-benzyloxy)-1-(3,4-dimethoxy-phenyl)-butyl]-4-(4-ethyl-piperazin-1-yl)-isoindole-1,3-dione]",–
22 nM,1000 nM,44 nM,"COc1ccc([C@@H](CCNS(=O)(=O)c2cn(C)c(C)n2)N2C(=O)c3cccc(N4CCN([C@H](C)c5ccccc5)CC4)c3C2=O)cc1OC [Cpd 219, (R)-1,2-dimethyl-1H-imidazole-4-sulfonic acid (3-(3,4-dimethoxy-phenyl)-3-{1,3-dioxo-4-[4-(1R)-(1-phenyl-ethyl)-piperazin-1-yl]-1,3-dihydro-isoindol-2-yl}-propyl)-amide]",–
